The values that follow come from US10470986B2, “Resorcinol compounds for dermatological use” (Conopco, Inc., priority 2013, dated 2019).

The test system of assay [1] is mushroom tyrosinase (Sigma T3824). Nature of the assay: Mushroom Tyrosinase Inhibition Assay. Format: biochemical. To be noted: 10 μM compound, 300 μM L-Tyrosine, 84 units/mL enzyme, pH 6.5, 15 min at room temperature. How it is done:
10 μM compound, 300 μM L-Tyrosine, and 84 units/mL of mushroom tyrosinase (Sigma T3824) were combined into 0.05 M potassium monophosphate buffer at pH=6.5, and incubated for 15 min at room temperature. Absorbance was recorded at 490 nm. % tyrosinase inhibition was calculated as follows: (AbsDMSO−Abscmpd)/AbsDMSO×100. The assay was performed for various compounds described herein, as well as for control compounds 4-ethyl resorcinol (4ER), 4-isopropylresorcinol (4IPR), 4-hexylresorcinol (4HR), 4-cyclohexylresorcinol (4CHR), 5-methylresorcinol (5MR), kojic acid (KA), and hydroquinone (HQ), structures of which are shown below.

Assay [2] has as its system B16F1 cells. Nature of the assay: B16 Melanin Assay. It is filed as cell-based. Particulars: 1 mM Theophylline stimulated, 72 h, media absorbance 405 nm corrected for viability (Calcein-AM); compound concentration not stated. How it is done: After trypsinization, cells were seeded at 3,000 cells per well in a 96-well plate and allowed to attach overnight. 1 mM Theophylline was used to stimulate melanogenesis, and the compound of interest was added. […] (AbsDMSO/CalceinDMSO-[…]/CalceinDMSO×100. The assay was performed for various compounds described herein, as well as for control compounds 4ER, 4IPR, 4HR, 4CHR, 5MR kojic acid, and hydroquinone. Results are shown in Table 2.

The subject of assay [3] is MelanoDerm (Mel-300-B). Nature of the assay: Mattek 3D Skin Equivalents, MelanoDerm (Mel-300-B) assay. Format: cell-based, human. To be noted: every other day, 14 days. The text has this:
Many people at different stages of their life are concerned with the degree of pigmentation of their skin and may wish to reduce the skin darkening, or may wish to lighten or even-tone their natural skin color. The mechanism by which skin pigmentation is formed, melanogenesis, is particularly complex and schematically involves the following main steps: Tyrosine→L-Dopa→Dopaquinone→Dopachrome→Melanins. The first two reactions in this series are catalyzed by the enzyme tyrosinase. The activity of tyrosinase is promoted by the action of a-melanocyte stimulating hormone or UV rays. It is well established that a substance has a depigmenting effect if it acts directly on the vitality of the epidermal melanocytes where melanogenesis normally occurs and/or if it interferes with one of the stages in melanin biosynthesis. Pigmentation disorders can take a variety of forms like hyperpigmentation, hypopigmentation, and uneven pigmentation, and include but are not limited to melasma (mask of pregnancy or chloasma), liver spots (which often develop with age) and leukoderma such as vitiligo. […] The degree of pigmentation disorders of the skin in many cases increases with the age of the individuals. Because of the involvement of tyrosinase in melanogensis, tyrosinase inhibition assays are often used to screen potential skin lightening agents. Some mushroom tyrosinases (such as that from Agaricus bisporus) are homologous with mammalian tyrosinase, and mushroom tyrosinase is often used in inhibition assays due to its ready commercial availability. However, the enzyme inhibition assays may not be as good an indicator of activity as assays which are more similar to the intended clinical or cosmetic use, such as the MatTek Corporation's MelanoDerm™ Skin Model (a system which consists of normal, human-derived epidermal keratinocytes and melanocytes formed into a multilayered model of human epidermis).
MelanoDerm (Mel-300-B) assay was conducted according to the manufacturer's instruction (MatTek Corporation). Every other day, the test articles were administered into the EPI-100-NMM-113 culture medium, and positive control, 25 uL of 2% Kojic acid was applied topically. After 14 days, tissue viability and melanocyte morphology were visually verified and tissue melanin was extracted and quantitated against a standard curve. % melanin was calculated as follows: (MelaninDMSO−Melanincomp)/MelaninDMSO×100. The assay was performed for various compounds described herein, as well as for control compounds 4ER, 4IPR, 4HR, 4CHR, kojic acid, and hydroquinone.

Take `Cc1cc(O)cc(O)c1Cc1ccccc1` [4,5BnMR, 4-benzyl-5-methylbenzene-1,3-diol]: the “Mushroom Tyrosinase (% remaining enzyme activity), % TYR Activity” value in assay [1] is reported as 97%. Moreover, the “B16 Media Melanin (% Melanin), % Melanin B16” value (“B16 Media Melanin (% Melanin)” for short) in assay [2] is given as 86%. The “MatTek Assay (% Melanin), % Melanin 3D EpiDerm” value (“MatTek Assay (% Melanin)” below) in assay [3] (10 μM in culture medium) turned out to be 82%; in assay [3] (30 μM in culture medium) it was 61%.

As to `Oc1cc(O)c(Cc2ccccc2)c(C(F)(F)F)c1` [4,5BnTFMR, 2-Benzyl-1,5-dihydroxy-3-trifluoromethyl-benzene], in assay [1], the “Mushroom Tyrosinase (% remaining enzyme activity), % TYR Activity” value turned out to be 93%. The “B16 Media Melanin (% Melanin)” value in assay [2] is on record as 82%. In addition, the “MatTek Assay (% Melanin)” value in assay [3] (30 μM in culture medium) turned out to be 75%.

As to `Oc1cc(O)c(C2CCCCC2)c(F)c1` [4,5CHFR, 4-cyclohexyl-5-fluorobenzene-1,3-diol], in assay [1], the “Mushroom Tyrosinase (% remaining enzyme activity), % TYR Activity” value is 1%. Besides, in assay [2], the “B16 Media Melanin (% Melanin)” value is listed as 51%. For the same compound, the “MatTek Assay (% Melanin)” value in assay [3] (10 μM in culture medium) is on record as 87%; in assay [3] (30 μM in culture medium), 81%.

In the case of `Cc1cc(O)cc(O)c1C1CCCCC1` [4,5CHMR, 4-cyclohexyl-5-methylbenzene-1,3-diol], the “Mushroom Tyrosinase (% remaining enzyme activity), % TYR Activity” value in assay [1] came out at 22%. Also, in assay [2], the “B16 Media Melanin (% Melanin)” value is 58%. Further, the “MatTek Assay (% Melanin)” value in assay [3] (10 μM in culture medium) is 66%; in assay [3] (30 μM in culture medium) it was 44%.

Consider `Oc1cc(O)c(C2CCCCC2)c(C(F)(F)F)c1` [4,5CHTFMR], for which the “Mushroom Tyrosinase (% remaining enzyme activity), % TYR Activity” value in assay [1] came out at 100%. Further, the “B16 Media Melanin (% Melanin)” value in assay [2] was 65%. The “MatTek Assay (% Melanin)” value in assay [3] (10 μM in culture medium) is given as 89%.

`Cc1cc(O)cc(O)c1C1CCCC1` [4,5CPMR, 4-cyclopentyl-5-methylbenzene-1,3-diol]: the “Mushroom Tyrosinase (% remaining enzyme activity), % TYR Activity” value in assay [1] is reported as 71%. Further, in assay [2], the “B16 Media Melanin (% Melanin)” value is listed as 61%. Besides, the figures for the “MatTek Assay (% Melanin)” value in assay [3] (10 μM in culture medium) and in assay [3] (30 μM in culture medium) were 65% and 55%, respectively.

As for `Cc1cc(O)cc(O)c1C1CC1` [4,5CPrMR, 4-cyclopropyl-5-methylbenzene-1,3-diol], the “Mushroom Tyrosinase (% remaining enzyme activity), % TYR Activity” value in assay [1] is given as 30%. For the same compound, the “B16 Media Melanin (% Melanin)” value in assay [2] was 62%. The “MatTek Assay (% Melanin)” value was 99% in assay [3] (10 μM in culture medium) and 82% in assay [3] (30 μM in culture medium).

As to `Oc1cc(O)c(C2CCCCC2)c(F)c1` [4,5EFR, 4-cyclohexyl-5-fluorobenzene-1,3-diol], the “Mushroom Tyrosinase (% remaining enzyme activity), % TYR Activity” value in assay [1] came out at 3%. Further, in assay [2], the “B16 Media Melanin (% Melanin)” value was 87%.

`CCc1c(C)cc(O)cc1O` [4,5EMR, 4-ethyl-5-methylbenzene-1,3-diol]: the “Mushroom Tyrosinase (% remaining enzyme activity), % TYR Activity” value in assay [1] was found to be 93%. Besides, in assay [2], the “B16 Media Melanin (% Melanin)” value is 69%. The figures for the “MatTek Assay (% Melanin)” value in assay [3] (10 μM in culture medium) and in assay [3] (30 μM in culture medium) were 102% and 79%, respectively.

As for `CCc1c(O)cc(O)cc1C(F)(F)F` [4,5ETFMR, 2-Ethyl-1,5-dihydroxy-3-trifluoromethyl-benzene], the “B16 Media Melanin (% Melanin)” value in assay [2] was 68%. The results for the “MatTek Assay (% Melanin)” value in assay [3] (10 μM in culture medium) and in assay [3] (30 μM in culture medium) were 81% and 66%, respectively.

For `CCCCCCc1c(C)cc(O)cc1O` [4,5HMR, 4-hexyl-5-methylbenzene-1,3-diol], the “Mushroom Tyrosinase (% remaining enzyme activity), % TYR Activity” value in assay [1] worked out at 10%. For the same compound, in assay [2], the “B16 Media Melanin (% Melanin)” value is recorded as 78%. Besides, the entries for the “MatTek Assay (% Melanin)” value in assay [3] (10 μM in culture medium) and in assay [3] (30 μM in culture medium) were 77% and 68%, respectively.

For `Cc1cc(O)cc(O)c1C(C)C` [4,5IPMR, 4-isopropyl-5-methylbenzene-1,3-diol], in assay [2], the “B16 Media Melanin (% Melanin)” value was 71%. Also, the “MatTek Assay (% Melanin)” value in assay [3] (10 μM in culture medium) stood at 102%; in assay [3] (30 μM in culture medium), 72%.

As to `Cc1cc(O)cc(O)c1CC1CCCC1` [4,5MCPMR, 4-cyclopentylmethyl-5-methylbenzene-1,3-diol], the “Mushroom Tyrosinase (% remaining enzyme activity), % TYR Activity” value in assay [1] was 32%. For the same compound, the “B16 Media Melanin (% Melanin)” value in assay [2] is 90%. For the same compound, the “MatTek Assay (% Melanin)” value was found to be 94% in assay [3] (10 μM in culture medium) and 72% in assay [3] (30 μM in culture medium).

Take `Cc1cc(O)cc(O)c1C(C)c1ccccc1` (centres unmarked) [4,5PEMR, 4-(1-phenylethyl)-5-methylbenzene-1,3-diol]: the “B16 Media Melanin (% Melanin)” value in assay [2] is recorded as 87%. In addition, the entries for the “MatTek Assay (% Melanin)” value in assay [3] (10 μM in culture medium) and in assay [3] (30 μM in culture medium) were 98% and 62%, respectively.

In the case of `Cc1cc(O)cc(O)c1CC(F)(F)F` [4,5TFEMR, 4-(2,2,2-trifluoroethyl)-5-methylbenzene-1,3-diol], the “B16 Media Melanin (% Melanin)” value in assay [2] is recorded as 90%. The “MatTek Assay (% Melanin)” value in assay [3] (10 μM in culture medium) is 81%; in assay [3] (30 μM in culture medium), 72%.

For the compound `CCC(C)c1c(C)cc(O)cc1O` (centres unmarked) [4,5sBMR, 4-sec-butyl-5-methylbenzene-1,3-diol], the “Mushroom Tyrosinase (% remaining enzyme activity), % TYR Activity” value in assay [1] is listed as 100%. Further, the “B16 Media Melanin (% Melanin)” value in assay [2] was 76%. Further, the “MatTek Assay (% Melanin)” value in assay [3] (10 μM in culture medium) is recorded as 75%; in assay [3] (30 μM in culture medium), 67%.

For the compound `Oc1ccc(C2CCCCC2)c(O)c1` [Compound 4CHR, 4-cyclohexylresorcinol, reference compound], the “Mushroom Tyrosinase (% remaining enzyme activity), % TYR Activity” value in assay [1] is 0%. Besides, the “B16 Media Melanin (% Melanin)” value in assay [2] is recorded as 63%. Moreover, the results for the “MatTek Assay (% Melanin)” value in assay [3] (10 μM in culture medium) and in assay [3] (30 μM in culture medium) were 65% and 36%, respectively.

For `CCc1ccc(O)cc1O` [Compound 4ER, 4-ethyl resorcinol, reference compound], the “Mushroom Tyrosinase (% remaining enzyme activity), % TYR Activity” value in assay [1] was 2%. Also, in assay [2], the “B16 Media Melanin (% Melanin)” value is recorded as 48%. Also, the “MatTek Assay (% Melanin)” value in assay [3] (10 μM in culture medium) is reported as 84%; in assay [3] (30 μM in culture medium), 61%.

In the case of `CCCCCCc1ccc(O)cc1O` [Compound 4HR, 4-hexylresorcinol, reference compound], in assay [1], the “Mushroom Tyrosinase (% remaining enzyme activity), % TYR Activity” value was 1%. For the same compound, in assay [2], the “B16 Media Melanin (% Melanin)” value is 71%. For the same compound, the “MatTek Assay (% Melanin)” value in assay [3] (10 μM in culture medium) is recorded as 93%; in assay [3] (30 μM in culture medium) it was 72%.

In the case of `CC(C)c1ccc(O)cc1O` [Compound 4IPR, 4-isopropylresorcinol, reference compound], in assay [1], the “Mushroom Tyrosinase (% remaining enzyme activity), % TYR Activity” value was determined as 1%. For the same compound, the “B16 Media Melanin (% Melanin)” value in assay [2] is listed as 77%. Moreover, the “MatTek Assay (% Melanin)” value in assay [3] (10 μM in culture medium) is 71%; in assay [3] (30 μM in culture medium), 46%.

With `Cc1cc(O)cc(O)c1` [Compound 5MR, 5-methylresorcinol, reference compound], the “Mushroom Tyrosinase (% remaining enzyme activity), % TYR Activity” value in assay [1] is 100%. Also, the “B16 Media Melanin (% Melanin)” value in assay [2] is 100%.

Turning to `Oc1ccc(O)cc1` [Hydroquinone, hydroquinone, reference compound], the “Mushroom Tyrosinase (% remaining enzyme activity), % TYR Activity” value in assay [1] is recorded as 100%. In addition, in assay [2], the “B16 Media Melanin (% Melanin)” value was 100%. Besides, the “MatTek Assay (% Melanin)” value in assay [3] (10 μM in culture medium) was 94%; in assay [3] (30 μM in culture medium), 92%.

As to `O=c1cc(CO)occ1O` [Kojic Acid, kojic acid, reference compound], the “Mushroom Tyrosinase (% remaining enzyme activity), % TYR Activity” value in assay [1] was 84%. In addition, the “B16 Media Melanin (% Melanin)” value in assay [2] was 100%. The “MatTek Assay (% Melanin)” value in assay [3] (10 μM in culture medium) stood at 100%; in assay [3] (30 μM in culture medium), 100%; in assay [3] (positive control, 25 uL of 2% Kojic acid applied topically) it was 75%.
